# Several values for one entry are separate records, joined by “and”; a condition that tells them apart may be missing. Identical values can stand only once.
# Experiments:
# [1] = tested on: five PZA resistant M. tuberculosis strains; assay: microbe, parasite or virus in culture; type: cell-based; conditions: Mycobacterium tuberculosis, 504 h, pH 6.8, read-out: MIC for PZA
# [2] = tested on: PZA-resistant strain (PZA^R) (#6 PncA mutation L159P); type: cell-based, Mycobacterium tuberculosis; conditions: pH 6.8
# [3] = tested on: ORA76 PZA-resistant strain with mutation in panD gene; type: cell-based, Mycobacterium tuberculosis
# [4] = tested on: Z6 PZA-resistant strain with mutation in pncA gene; type: cell-based, Mycobacterium tuberculosis
# [5] = tested on: ORA48 PZA-resistant strain with mutation in panD gene; type: cell-based, Mycobacterium tuberculosis
# [6] = tested on: Z98 PZA-resistant strain with mutation in pncA gene; type: cell-based, Mycobacterium tuberculosis
# [7] = tested on: Z186 PZA-resistant strain with mutation in pncA gene; type: cell-based, Mycobacterium tuberculosis
# [8] = tested on: ORA136 PZA-resistant strain with mutation in panD gene; type: cell-based, Mycobacterium tuberculosis
# [9] = tested on: M. tuberculosis PZA-resistant strains #6, #78, #98, #106, #186; type: cell-based; conditions: PZA-S1-Plus agar, pH 6.8, 400, 800 and 1600 μg PZA
structure (smiles),measurement,setting,value
"NC(=O)c1cnccn1 [PZA, Pyrazinamide]",MIC,[1],> 800 µg/mL
same,PZA concentration at which the resistant strain grew,[2],800 µg/mL
same,MIC of PZA,[3],greater than 300 μg/ml
same,Percentage of CFU to Z 0,[3],2.26% and 1.83% and 2.33% and 2.31%
same,MIC of PZA,[4],greater than 300 μg/ml
same,Percentage of CFU to Z 0,[4],9.33% and 10.00% and 8.65% and 12.47%
same,MIC of PZA,[5],greater than 300 μg/ml
same,Percentage of CFU to Z 0,[5],3.74% and 3.48% and 3.39% and 3.00%
same,MIC of PZA,[6],greater than 300 μg/ml
same,Percentage of CFU to Z 0,[6],6.76% and 6.62% and 5.15% and 5.81%
same,MIC of PZA,[7],greater than 300 μg/ml
same,Percentage of CFU to Z 0,[7],1.07% and 1.09% and 1.01% and 1.08%
same,MIC of PZA,[8],greater than 300 μg/ml
same,Percentage of CFU to Z 0,[8],3.70% and 4.19% and 3.37% and 2.56%
same,"growth inhibition, paper disk",[9],no inhibition
